Laboratory results: patent publication US20130197030A1, “Substituted 1,3-Dioxanes and There Uses” (Evolva Sa, priority 2007, published 2013)
Blank lines part the entries; values can stand above or below the compound they belong to.

Experiments:
[1] = tested on: arterial thrombosis in a mouse model; assay: Arterial thrombosis in a mouse model (FeCl3, femoral artery); assay type: in vivo; conditions: mice
Protocol: The solutions are diluted 3.3-fold in saline and 100 μl/25 g is injected. Thus, the above-mentioned doses of 100 and 300 mg/kg of compound correspond to final doses of 30 and 100 mg/kg.
During the experiments, a soluble salt of the drug is provided (e.g., potassium salt of compound C), diluted in saline. Of this formulation, 100 μl/25 g is injected i.v. in the tail vein (dose of 100 mg/kg).
Solutions are injected (100 μl/25 g body weight) i.v. in the tail vein over 2 min to obtain doses of each compound of 30 mg/kg and 100 mg/kg. Aspirin is given the same way at a dose of 200 mg/kg. Clopidogrel is administered by oral gavage at a dose of 20 mg/kg at 6-7 hours prior to the experiment. The animals assigned to each group are matched for body weight. Mice are typically 8-10 weeks old males and are in a 100% Swiss genetic background.
The flow in each image is expressed as a percentage of that at the contralateral side, and data are averaged for all 120 images to determine total flow. The same analysis is performed for 10 min intervals (which gives essentially the same information as the area under the curve). […] Flow before treatment is recorded as 100%, and that in occluded arteries as 0%. At the end of the experiment, blood is collected on 0.01M citrate buffer by heart puncture for determination of blood cell counts. Plasma is prepared by centrifugation and stored at −20° C. for determination of drug levels.
Statistical analysis for differences between two groups is performed by non-parametric Student t-test. Occlusion times >30 min were considered equal to 30 min for statistical analysis. Significance is set at p<0.05.

KKA^y mice = assay: In vivo effect on serum glucose and other parameters in KKA^y mice
Protocol: 52 male KKA^y mice are obtained commercially (e.g., from Clea Japan) at an age of 6 weeks and put on a high fat diet upon arrival. Individual mice were housed in IVC Type II cages during both the acclimatization and the experimental phase. Both food (high fat diet) and water are supplied ad libitum.
1 animal per cage. […] Lights on at 06:00 a.m. Temperature: 21-25° C. Relative humidity target range: 55-60%.
Mice were randomized into treatment groups according to their 4-h fasting blood glucose.
4 hours after the last administration, non-fasting conditions.
Gamma irradiated high fat diet is commercially available (e.g., Research Diets, Inc. New Brunswick, N.J. (Product # D12266BI)).
Blood is collected into heparin containing glass capillaries which are subsequently centrifuged in a “Haematokrit 24” centrifuge (Hettich) at 15′200×g for 10 minutes at room temperature to obtain the hematocrit value.
The following serum parameters are determined on a COBAS INTEGRA 800 auto analyzer (Roche Diagnostics, Switzerland) using the reagents and protocols provided by the supplier.
All measurements are made on Day 14 of administration, except for the food intake and body weight measurements that are made on Day 12.

[2] = target: T1, Thromboxane receptor (TP) (Homo sapiens, UniProt P21731); assay: TP receptor radioligand binding; conditions: Human recombinant HEK-293 cells
T1 construct: expressed in transfected cells; host or cells: HEK-293 cells
T1 sequence (P21731 1-343): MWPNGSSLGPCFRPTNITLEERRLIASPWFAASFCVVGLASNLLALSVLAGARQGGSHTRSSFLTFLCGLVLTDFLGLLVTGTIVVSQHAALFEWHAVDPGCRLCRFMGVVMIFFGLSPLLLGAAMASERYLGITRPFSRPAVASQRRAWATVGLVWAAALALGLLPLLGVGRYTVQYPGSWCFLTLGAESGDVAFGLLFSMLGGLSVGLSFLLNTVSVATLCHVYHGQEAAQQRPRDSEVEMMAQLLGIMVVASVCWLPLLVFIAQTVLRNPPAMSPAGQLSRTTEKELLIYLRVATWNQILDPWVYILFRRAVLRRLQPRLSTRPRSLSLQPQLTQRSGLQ
Protocol: The compounds were tested on radioligand binding assays for thromboxane receptor binding essentially as described by Hedberg et al. (1988) J. Pharmacol. Exp. Ther. 245:786-792 and Saussy et al. (1986) J. Biol. Chem. 261: 3025-3029 according to the following:
TP Receptor Radioligand Binding Studies:
Human recombinant HEK-293 cells,
Incubation Time, Temp: 30 minutes at 25° C.
Incubation Buffer: 50 mM Tris-HCl, pH 7.4, 154 mM NaCl
Non-Specific Ligand: 1 μM SQ-29548
The data were transformed to semi-log and then analysed using non-linear regression to a four-parameter dose-response curve Y=Bottom+(Top−Bottom)/(1+10̂((LogEC50−X)*HillSlope)) using the log(agonist) vs. response—Variable slope function of GraphPad Prism software (http://graphpad.com/help/prism5/prism5help.html?usingnonlinear_regression_step_by_s.htm).

Thromboxane synthase = target: T2, Thromboxane synthase (Homo sapiens, UniProt P24557); assay: Human platelet thromboxane synthase assay; assay type: biochemical
T2 construct: Human Platelet Thromboxane Synthase Assay; from tissue; host or cells: human platelets
T2 sequence (P24557 1-533): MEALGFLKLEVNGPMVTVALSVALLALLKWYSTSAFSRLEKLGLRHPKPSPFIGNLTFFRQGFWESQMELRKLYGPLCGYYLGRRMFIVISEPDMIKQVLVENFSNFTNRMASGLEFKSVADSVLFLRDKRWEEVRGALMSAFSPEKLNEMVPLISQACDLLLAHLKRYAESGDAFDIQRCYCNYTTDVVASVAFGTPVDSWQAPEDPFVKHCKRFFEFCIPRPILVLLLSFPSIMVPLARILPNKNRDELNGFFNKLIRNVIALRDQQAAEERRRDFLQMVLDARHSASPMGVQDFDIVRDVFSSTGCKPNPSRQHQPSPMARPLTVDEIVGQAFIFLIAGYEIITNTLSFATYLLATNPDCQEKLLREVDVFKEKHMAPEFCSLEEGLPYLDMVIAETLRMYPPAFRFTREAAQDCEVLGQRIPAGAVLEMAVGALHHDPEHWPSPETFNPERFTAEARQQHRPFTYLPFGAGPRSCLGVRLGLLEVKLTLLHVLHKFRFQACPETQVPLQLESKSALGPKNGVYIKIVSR
Protocol: The compounds were tested for thromboxane synthase inhibition essentially as described by Borsch-Haubold A G, Pasquet S, Watson S P. (1998). Direct inhibition of cyclooxygenase-1 and -2 by the kinase inhibitors SB 203580 and PD 98059. […] 1. Imidazole derivatives. J Med. Chem. (10):1139-48 according to the following:
Pre-incubation time, temp: 15 minutes at 25° C. Incubation time, temp: 3 minutes at 25° C.
Incubation Buffer: 10 mM Tris-HCl, pH 7.4
Quantification Method: ETA quantification of TxB2

[3] = tested on: U-46619-induced platelet aggregation; assay: TP receptor platelet aggregation, rabbit; assay type: cell-based, New Zealand Rabbit
Protocol: Thrombosis Research 33:277-288.
TP Receptor Platelet Aggregation—Rabbit:
New Zealand Rabbit (2.75±0.25 kg) platelet rich plasma
Assay: Inhibition of 1.5 μM U-46619-induced platelet aggregation Incubation Time, Temp: 5 minutes at 37° C. Incubation Buffer Trisodium Citrate (0.13 M)-treated platelet rich plasma
Time of Assessment: 5 minutes
Quantification Method Optical Density Change

[4] = 53 mg/kg BID oral gavage 14 days, high fat diet, Day 14
[5] = 14-day oral gavage BID, dose not given

Structure (SMILES): COC(=O)[C@H](c1ccccc1Cl)N1CCc2sccc2C1 [Clopidogrel]
Total blood flow ([1]; 20 mg/kg oral gavage 6-7 hours prior): significantly improved total blood flow

Structure (SMILES): CC(=O)Oc1ccccc1C(=O)O [Aspirin]
Occlusion time ([1]; 200 mg/kg i.v.): has no effect on the occlusion time
Total blood flow ([1]; 200 mg/kg i.v.): has no significant effect on the total blood flow

Structure (SMILES): COc1ccccc1[C@@H]1O[C@H](c2ccccc2Cl)OC[C@@H]1C/C=C\CCC(=O)O [Compound E, (Z)-6-((2R,4R,5S)-2-(2-chlorophenyl)-4-(2-methoxyphenyl)-1,3-dioxan-5-yl)hex-4-enoic acid, reference compound]
inhibition at 10 µM ([2]; 5 nM [3H] SQ-29548): 85%
inhibition at 30 µM (Thromboxane synthase; at 30 μM): 52%

Structure (SMILES): CN(CCOc1ccc(CC2SC(=O)NC2=O)cc1)c1ccccn1 (stereo not shown) [Rosiglitazone, reference compound]
Heart weight (KKA^y mice; 5 mg/kg BID oral gavage 14 days, high fat diet, Day 14): 226.2 ± 6.9 mg
Heart weight (KKA^y mice; 5 mg/kg BID oral gavage 14 days, high fat diet, Day 14, listed as rosiglitazone): increased

Now from value to compound, other results behind:

Heart weight (KKA^y mice; [4]): has no effect on heart weight
Structure (SMILES): O=C(O)CC/C=C\C[C@@H]1CO[C@H](c2ccccc2Cl)O[C@@H]1c1ccccc1O [Compound C, (Z)-6-((2S,4S,5R)-2-(2-chlorophenyl)-4-(2-hydroxyphenyl)-1,3-dioxan-5-yl)hex-4-enoic acid, reference compound]
Occlusion time ([1]; 30 mg/kg in vehicle i.v.): slightly prolongs the occlusion time as compared to aspirin (p=0.024), but has no effect as compared to vehicle
Total blood flow ([1]; 30 mg/kg in vehicle i.v.): has no effect on total blood flow
FFA (KKA^y mice; [4]): decreases the FFA
HbA1C (KKA^y mice; [4]): decreased
Serum Glucose (KKA^y mice; [4]): decreased
Body weight (KKA^y mice; 53 mg/kg BID oral gavage, high fat diet, Day 12): do not alter body weight

IC50 ([2]; 5 nM [3H] SQ-29548): 1.68 µM
Ki ([2]; 5 nM [3H] SQ-29548): 1.1 µM
inhibition at 10 µM ([2]; 5 nM [3H] SQ-29548): 93%
IC50 (Thromboxane synthase): > 100 µM
inhibition at 100 µM (Thromboxane synthase; at 100 μM): 37%
Structure (SMILES): O=C(O)CC/C=C\C[C@H]1CO[C@@H](c2coc3ccc(Cl)cc3c2=O)O[C@H]1c1ccccc1O (single isomer, unassigned) [Compound 3-2]

IC50 ([2]; 5 nM [3H] SQ-29548): 0.0889 µM
Ki ([2]; 5 nM [3H] SQ-29548): 0.058 µM
inhibition at 1 µM ([2]; at 1 μM, 5 nM [3H] SQ-29548): 99%
IC50 (Thromboxane synthase): 0.365 µM
inhibition at 1 µM (Thromboxane synthase; at 1 μM): 67%
Structure (SMILES): O=C(O)CC/C=C\C[C@@H]1CO[C@H](c2coc3ccc(Cl)cc3c2=O)O[C@@H]1c1ccccc1O (single isomer, unassigned) [Compound 3-1]
Binding to the TP receptor (comparison of enantiomers) [2]: binds with higher affinity than enantiomer 3-2

inhibition at 5 µM (Thromboxane synthase; at 5 μM): 85%
Heart weight (KKA^y mice; [5]): has no effect on heart weight
Structure (SMILES): Cc1ccc2nc(Cl)c([C@H]3OC[C@@H](C/C=C\CCC(=O)O)[C@@H](c4ccccc4O)O3)cc2c1 (racemic) [Compound 13, (Z)-6-(2-(2-Chloro-6-methyl-quinolin-3-yl)-4-(2-hydroxyphenyl)-1,3-dioxan-5-yl)hex-4-enoic acid]
Inhibition of thromboxane synthase (in words) (Thromboxane synthase): potent inhibitors of thromboxane synthase
Inhibition of platelet aggregation (in words) [3]: potent inhibitors of platelet aggregation
inhibition at 10 µM ([3]; Oryctolagus cuniculus, at 10 μM, 1.5 μM U-46619, platelet rich plasma): 100%
Occlusion time ([1]; dose not given): prolongs the occlusion time
Total blood flow ([1]; dose not given): improves total blood flow
FFA (KKA^y mice; [5]): decreases the FFA
HbA1c levels (KKA^y mice; [5]): decreased
Body weight (KKA^y mice; oral gavage BID, dose not given): do not alter body weight

IC50 ([2]; 5 nM [3H] SQ-29548): 0.0234 µM
Ki ([2]; 5 nM [3H] SQ-29548): 0.0153 µM
inhibition at 0.3 µM ([2]; at 0.3 μM, 5 nM [3H] SQ-29548): 96%
IC50 (Thromboxane synthase): 20.4 µM
Thromboxane synthase Human platelet Inhibition (%) (Thromboxane synthase; at 30 μM): 62 @ 30 μM %
Structure (SMILES): COc1ccccc1[C@@H]1O[C@H](c2ccccc2Cl)OC[C@@H]1C/C=C\CCC(=O)O [Compound F, (Z)-6-((2R,4R,5S)-2-(2-chlorophenyl)-4-(2-methoxyphenyl)-1,3-dioxan-5-yl)hex-4-enoic acid, reference compound]
